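In this assay, cells in 96-well plates receive the compound at five concentrations for 48 hours. Endpoints are linearly interpolated between the surrounding concentrations. The concentration for 50% growth inhibition is given as GI50. TGI marks complete inhibition of growth.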
Experiments:
Experiment in all cases: NCI-60 cell line screen, 48 h
786-0 renal = tested on: 786-0 renal
A498 renal = tested on: A498 renal
A549 NSCLC = tested on: A549 NSCLC
ACHN renal = tested on: ACHN renal
BT-549 breast = tested on: BT-549 breast
CAKI-1 renal = tested on: CAKI-1 renal
CCRF-CEM leukemia = tested on: CCRF-CEM leukemia
COLO 205 colon = tested on: COLO 205 colon
DU-145 prostate = tested on: DU-145 prostate
EKVX NSCLC = tested on: EKVX NSCLC
HCC-2998 colon = tested on: HCC-2998 colon
HCT-116 colon = tested on: HCT-116 colon
HCT-15 colon = tested on: HCT-15 colon
HL-60(TB) leukemia = tested on: HL-60(TB) leukemia
HOP-62 NSCLC = tested on: HOP-62 NSCLC
HOP-92 NSCLC = tested on: HOP-92 NSCLC
HS 578T breast = tested on: HS 578T breast
HT29 colon = tested on: HT29 colon
IGROV1 ovarian = tested on: IGROV1 ovarian
K-562 leukemia = tested on: K-562 leukemia
KM12 colon = tested on: KM12 colon
LOX IMVI melanoma = tested on: LOX IMVI melanoma
M14 melanoma = tested on: M14 melanoma
MALME-3M melanoma = tested on: MALME-3M melanoma
MCF7 breast = tested on: MCF7 breast
MDA-MB-231 breast = tested on: MDA-MB-231 breast
MDA-MB-435 = tested on: MDA-MB-435
MDA-MB-468 breast = tested on: MDA-MB-468 breast
MOLT-4 leukemia = tested on: MOLT-4 leukemia
NCI-H226 lung = tested on: NCI-H226 lung
NCI-H23 lung = tested on: NCI-H23 lung
NCI-H460 lung = tested on: NCI-H460 lung
NCI-H522 lung = tested on: NCI-H522 lung
NCI/ADR-RES ovarian = tested on: NCI/ADR-RES ovarian
OVCAR-3 ovarian = tested on: OVCAR-3 ovarian
OVCAR-4 ovarian = tested on: OVCAR-4 ovarian
OVCAR-5 ovarian = tested on: OVCAR-5 ovarian
OVCAR-8 ovarian = tested on: OVCAR-8 ovarian
PC-3 prostate = tested on: PC-3 prostate
RPMI-8226 leukemia = tested on: RPMI-8226 leukemia
RXF 393 renal = tested on: RXF 393 renal
SF-268 CNS = tested on: SF-268 CNS
SF-295 CNS = tested on: SF-295 CNS
SF-539 CNS = tested on: SF-539 CNS
SK-MEL-2 melanoma = tested on: SK-MEL-2 melanoma
SK-MEL-28 melanoma = tested on: SK-MEL-28 melanoma
SK-MEL-5 melanoma = tested on: SK-MEL-5 melanoma
SK-OV-3 ovarian = tested on: SK-OV-3 ovarian
SN12C renal = tested on: SN12C renal
SNB-19 CNS = tested on: SNB-19 CNS
SNB-75 CNS = tested on: SNB-75 CNS
SR leukemia = tested on: SR leukemia
SW-620 colon = tested on: SW-620 colon
T-47D breast = tested on: T-47D breast
TK-10 renal = tested on: TK-10 renal
U251 CNS = tested on: U251 CNS
UACC-257 melanoma = tested on: UACC-257 melanoma
UACC-62 melanoma = tested on: UACC-62 melanoma
UO-31 renal = tested on: UO-31 renal

COc1cc(OC)c2c3nc4cc(C)c(C)cc4nc3n(CCN(C)C)c2c1
GI50 (786-0 renal): 14.2 µM | TGI (786-0 renal): 29.2 µM | GI50 (A498 renal): > 100 µM | TGI (A498 renal): > 100 µM | GI50 (A549 NSCLC): 4.98 µM | TGI (A549 NSCLC): 22.9 µM | GI50 (ACHN renal): 11.1 µM | TGI (ACHN renal): 23.1 µM | GI50 (BT-549 breast): 14.2 µM | TGI (BT-549 breast): 28.5 µM | GI50 (CAKI-1 renal): 15.9 µM | TGI (CAKI-1 renal): 29.8 µM | GI50 (CCRF-CEM leukemia): 22.4 µM | TGI (CCRF-CEM leukemia): > 100 µM | GI50 (COLO 205 colon): 5.51 µM | TGI (COLO 205 colon): 20 µM | GI50 (DU-145 prostate): 14.5 µM | TGI (DU-145 prostate): 28.2 µM | GI50 (EKVX NSCLC): 14.7 µM | TGI (EKVX NSCLC): 28.3 µM | GI50 (HCC-2998 colon): 12.7 µM | TGI (HCC-2998 colon): 26.1 µM | GI50 (HCT-116 colon): 13.9 µM | TGI (HCT-116 colon): 30.3 µM | GI50 (HCT-15 colon): 11.4 µM | TGI (HCT-15 colon): 24.7 µM | GI50 (HL-60(TB) leukemia): 16.3 µM | TGI (HL-60(TB) leukemia): 36.4 µM | GI50 (HOP-62 NSCLC): 5.75 µM | TGI (HOP-62 NSCLC): 22.2 µM | GI50 (HOP-92 NSCLC): 11.5 µM | TGI (HOP-92 NSCLC): 31.1 µM | GI50 (HS 578T breast): 15.7 µM | TGI (HS 578T breast): 39.5 µM | GI50 (HT29 colon): 4.88 µM | TGI (HT29 colon): 31.4 µM | GI50 (IGROV1 ovarian): 12 µM | TGI (IGROV1 ovarian): 26.1 µM | GI50 (K-562 leukemia): 3.1 µM | TGI (K-562 leukemia): 25.3 µM | GI50 (KM12 colon): 17.5 µM | TGI (KM12 colon): 34.2 µM | GI50 (LOX IMVI melanoma): 8.99 µM | TGI (LOX IMVI melanoma): 22.7 µM | GI50 (M14 melanoma): 13.5 µM | TGI (M14 melanoma): 30.6 µM | GI50 (MALME-3M melanoma): 14.1 µM | TGI (MALME-3M melanoma): 28.1 µM | GI50 (MCF7 breast): 4.75 µM | TGI (MCF7 breast): 19.2 µM | GI50 (MDA-MB-231 breast): 11.6 µM | TGI (MDA-MB-231 breast): 24.2 µM | GI50 (MDA-MB-435): 14.5 µM | TGI (MDA-MB-435): 28.2 µM | GI50 (MDA-MB-468 breast): 12.8 µM | TGI (MDA-MB-468 breast): 26.4 µM | GI50 (MOLT-4 leukemia): 10.6 µM | TGI (MOLT-4 leukemia): 41.7 µM | GI50 (NCI-H226 lung): 14.4 µM | TGI (NCI-H226 lung): 32.3 µM | GI50 (NCI-H23 lung): 13.1 µM | TGI (NCI-H23 lung): 27.8 µM | GI50 (NCI-H460 lung): 12.1 µM | TGI (NCI-H460 lung): 26.5 µM | GI50 (NCI-H522 lung): 13.5 µM | TGI (NCI-H522 lung): 33.6 µM | GI50 (NCI/ADR-RES ovarian): 10 µM | TGI (NCI/ADR-RES ovarian): 27.7 µM | GI50 (OVCAR-3 ovarian): 16.1 µM | TGI (OVCAR-3 ovarian): 30.6 µM | GI50 (OVCAR-4 ovarian): 14.9 µM | TGI (OVCAR-4 ovarian): 33.6 µM | GI50 (OVCAR-5 ovarian): 15.1 µM | TGI (OVCAR-5 ovarian): 29.1 µM | GI50 (OVCAR-8 ovarian): 2.4 µM | TGI (OVCAR-8 ovarian): 6.84 µM | GI50 (PC-3 prostate): 15.5 µM | TGI (PC-3 prostate): 61.4 µM | GI50 (RPMI-8226 leukemia): 19.9 µM | TGI (RPMI-8226 leukemia): > 100 µM | GI50 (RXF 393 renal): 11.8 µM | TGI (RXF 393 renal): 25.1 µM | GI50 (SF-268 CNS): 14.4 µM | TGI (SF-268 CNS): 32.1 µM | GI50 (SF-295 CNS): 13.1 µM | TGI (SF-295 CNS): 26.2 µM | GI50 (SF-539 CNS): 15 µM | TGI (SF-539 CNS): 28.3 µM | GI50 (SK-MEL-2 melanoma): 16.7 µM | TGI (SK-MEL-2 melanoma): 35.4 µM | GI50 (SK-MEL-28 melanoma): 15.6 µM | TGI (SK-MEL-28 melanoma): 29.3 µM | GI50 (SK-MEL-5 melanoma): 16.1 µM | TGI (SK-MEL-5 melanoma): 29.8 µM | GI50 (SK-OV-3 ovarian): 16.7 µM | TGI (SK-OV-3 ovarian): 32.1 µM | GI50 (SN12C renal): 11.5 µM | TGI (SN12C renal): 24.6 µM | GI50 (SNB-19 CNS): 12.9 µM | TGI (SNB-19 CNS): 25.7 µM | GI50 (SNB-75 CNS): 12.1 µM | TGI (SNB-75 CNS): 25.5 µM | GI50 (SR leukemia): 4.29 µM | TGI (SR leukemia): 50.7 µM | GI50 (SW-620 colon): 4.65 µM | TGI (SW-620 colon): 18.7 µM | GI50 (T-47D breast): 12.9 µM | TGI (T-47D breast): 32.1 µM | GI50 (TK-10 renal): 16.5 µM | TGI (TK-10 renal): 31.9 µM | GI50 (U251 CNS): 12.8 µM | TGI (U251 CNS): 28 µM | GI50 (UACC-257 melanoma): 14.9 µM | TGI (UACC-257 melanoma): 31.9 µM | GI50 (UACC-62 melanoma): 15.2 µM | TGI (UACC-62 melanoma): 29.1 µM | GI50 (UO-31 renal): 6.21 µM | TGI (UO-31 renal): 20.2 µM

— PubChem BioAssay (NCI)
